According to patent publication US4162324A, “Antibiotics 890A1 and 890A3” (Merck & Co., Inc., priority 1977, dated 1979):

Experiments:
[1] = tested on: Vibrio percolans (ATCC 8461); assay: Assay procedure for determining "890 Assay Units" (disc-plate assay, cephaloridine standard); format: cell-based
Method: The conventional disc-plate assay procedure is employed and the discs are 1/2 inch in diameter. The routinely poured 10 ml./plate inoculated with Vibrio percolans (ATCC 8461) is used and the standard is cephaloridine. Four concentrations of cephaloridine constitute the standard -- 3.12, 6.25. 12.5 and 25 mcg per ml. with the 12.5 mcg per ml. as a reference solution. The zone diameters on a 5 ml. plate for the standard are as follows:
A unit is defined as the amount of antibiotic-producing a 25 mm. zone of inhibition on a 5 ml. plate. Therefore, in this assay a concentration of 12.5 mcg per ml. of cephaloridine is considered equivalent to 1 unit of 890A. Since the slope of the line for cephaloridine is 4.0 calculations of the potency of a sample are made using a slope of 4.0.

[2] = tested on: Alcaligenes faecalis ATCC 213; assay: In vitro antibacterial spectrum profile, zone of inhibition; format: cell-based; conditions: ATCC213, 33 μg/ml, read-out: Inhib. Zone Diam.
Method: (§1) The test to determine the antibiotic spectrum profile is carried out by application of a 0.015 ml. droplet on the surface of a 100×15 mm. petri plate containing 5 ml. of seeded nutrient agar and 0.2% yeast extract. The antibiotic 890A1 is tested at a level of 33 μg/ml. and the antibiotic 890A3 is tested at a level of 182 μg/ml.

[3] = tested on: Bacillus sp. MB-633; assay: as above; format: cell-based; conditions: SP.MB633, 33 μg/ml, read-out: Inhib. Zone Diam.
Method: as §1

[4] = tested on: Corynebacterium pseudoidph. ATCC 9742; assay: as above; format: cell-based; conditions: ATCC9742, 33 μg/ml, read-out: Inhib. Zone Diam.
Method: as §1

[5] = tested on: Proteus vulgaris ATCC 21100; assay: as above; format: cell-based; conditions: ATCC21100, 33 μg/ml, read-out: Inhib. Zone Diam.
Method: as §1

[6] = tested on: Proteus vulgaris MB-1012; assay: as above; format: cell-based; conditions: MB1012, 33 μg/ml, read-out: Inhib. Zone Diam.
[7] = tested on: Pseudomonas aeruginosa MB-979; assay: as above; format: cell-based; conditions: MB979, 33 μg/ml, read-out: Inhib. Zone Diam.
[8] = tested on: Serratia marcescens ATCC 990; assay: as above; format: cell-based; conditions: ATCC990, 33 μg/ml, read-out: Inhib. Zone Diam.
[9] = tested on: Staphlococcus aureus ATCC 6538 P; assay: as above; format: cell-based; conditions: 33 μg/ml; read-out: Inhib. Zone Diam.
[10] = tested on: Bacillus subtilis ATCC 6633; assay: as above; format: cell-based; conditions: ATCC6633, 33 μg/ml, read-out: Inhib. Zone Diam.
[11] = tested on: Sarcina lutea ATCC 9341; assay: as above; format: cell-based; conditions: Micrococcus luteus, ATCC9341; 33 μg/ml; read-out: Inhib. Zone Diam.
[12] = tested on: Staphylococcus aureus MB-698; assay: as above; format: cell-based; conditions: MB698, 33 μg/ml, read-out: Inhib. Zone Diam.
[13] = tested on: Streptococcus faecalis MB-753; assay: as above; format: cell-based; conditions: Enterococcus faecalis, MB753; 33 μg/ml; read-out: Inhib. Zone Diam.
[14] = tested on: Brucella bronchiseptica ATCC 4617; assay: microbe, parasite or virus in culture; format: cell-based; conditions: Bordetella bronchiseptica, ATCC4617, read-out: Inhib. Zone Diam.
[15] = tested on: Salmonella gallinarum MB-1287; assay: In vitro antibacterial spectrum profile, zone of inhibition; format: cell-based; conditions: Salmonella enterica, 33 μg/ml, read-out: Inhib. Zone Diam.
[16] = tested on: Vibrio percolans ATCC 8461; assay: as above; format: cell-based; conditions: Comamonas terrigena, ATCC8461, read-out: Inhib. Zone Diam.
[17] = tested on: Xanthomonas vesicatoria MB-815; assay: as above; format: cell-based; conditions: MB815, 33 μg/ml, read-out: Inhib. Zone Diam.
[18] = tested on: Escherichia coli MB-1418; assay: as above; format: cell-based; conditions: MB1418, read-out: Inhib. Zone Diam.
[19] = tested on: Pseudomonas stutzeri ATCC 11607; assay: as above; format: cell-based; conditions: Stutzerimonas stutzeri, ATCC11607; 33 μg/ml; read-out: Inhib. Zone Diam.
[20] = tested on: Klebsiella pneumoniae MB-1264; assay: as above; format: cell-based; conditions: MB1264, read-out: Inhib. Zone Diam.
[21] = tested on: Aerobacter aerogenes MB-835; assay: as above; format: cell-based; conditions: Klebsiella aerogenes, MB835; 33 μg/ml; read-out: Inhib. Zone Diam.
[22] = tested on: Erwinia atroseptica ATCC 4466; assay: as above; format: cell-based; conditions: Pectobacterium atrosepticum, ATCC4466; 33 μg/ml; read-out: Inhib. Zone Diam.
[23] = tested on: Pseudomonas aeruginosa MB-2824; assay: as above; format: cell-based; conditions: MB2824, 33 μg/ml, read-out: Inhib. Zone Diam.
[24] = tested on: Escherichia coli ATCC 9637; assay: In vitro antibacterial spectrum profile, zone of inhibition, synthetic medium; format: cell-based; conditions: ATCC9637, read-out: Inhib. Zone Diam.
[25] = tested on: Streptococcus faecium MB-2820; assay: In vitro antibacterial spectrum profile, zone of inhibition; format: cell-based; conditions: Enterococcus faecium, MB2820; 33 μg/ml; read-out: Inhib. Zone Diam.
[26] = tested on: Streptococcus agalactiae MB-2875; assay: as above; format: cell-based; conditions: MB2875, read-out: Inhib. Zone Diam.
[27] = tested on: Vibrio percolans resistant to ceph. C MB-2566; assay: as above; format: cell-based; conditions: Comamonas terrigena, read-out: Inhib. Zone Diam.
[28] = tested on: Proteus vulgaris (episome) MB-2112; assay: as above; format: cell-based; conditions: 33 μg/ml, read-out: Inhib. Zone Diam.
[29] = tested on: Proteus mirabilis MB-3126; assay: as above; format: cell-based; conditions: MB3126, 33 μg/ml, read-out: Inhib. Zone Diam.
[30] = tested on: Vibrio percolans ATCC 8461 + 2 × 10^5 units/ml penicillinase; assay: In vitro antibacterial spectrum profile, zone of inhibition, with penicillinase; format: cell-based; conditions: Comamonas terrigena, ATCC8461, 33 μg/ml, read-out: Inhib. Zone Diam.
[31] = tested on: Salmonella schottmuellari MB-2837; assay: In vivo protection of intraperitoneally infected mice; set-up: species or system Female white Swiss mice; conditions: ip; at infection and 6 hours later; calculated on the projected purity of 890A1 at 5500 units/mg
Method: (§2) In determining the in vivo activity, antibiotic 890A1 is dissolved in and diluted with 0.15M NaCl, 0.01M sodium phosphate, pH 7.0, to provide five fourfold concentrations of drug for testing. Female white Swiss mice, averaging about 21 g. in weight, were infected intraperitoneally with the test organism suspended in broth. The numbers of organisms injected were determined by standard plate-count techniques. At the time of infection and again 6 hours later, certain of the mice were treated intraperitoneally with the antibiotic. Five mice were used for each concentration of drug tested. An additional two mice, not infected, were treated with the antibiotic to determine whether the amount of agent injected was toxic. Controls of five mice for each of several dilutions of the infecting culture were included in each test in order to calculate the numbers of organisms that were lethal to 50% of the infected, untreated mice (LD50). This calculation was made using survival data of the seventh day after infection, at which time the amount of drug that should protect 50% of the infected mice (ED50) also was calculated.
All animals receiving this challenge and not treated with antibiotic died within 48 hours of the infection.

[32] = Electrophoresis; format: physicochemical; conditions: neutral pH
[33] = Solubility in water; format: physicochemical; conditions: sodium salt
[34] = tested on: gram-negative and gram-positive organisms; assay: In vivo activity; set-up: species or system Female white Swiss mice; conditions: mouse
Method: as §2

[35] = tested on: Vibrio percolans ATCC 8461; assay: Bioassay, agar plate disc-diffusion method
[36] = 1 unit/ml. = the concentration which produces a 25 mm zone of inhibition

SMILES: O=C(Cc1cccs1)N[C@@H]1C(=O)N2C(C(=O)[O-])=C(C[n+]3ccccc3)CS[C@H]12 [cephaloridine]
- slope of the line [1]: 4.0
- zone of inhibition at 3.12 µg/mL ([1]; Comamonas terrigena, ATCC8461, 3.12 mcg/ml, 5 ml. plate, read-out: Zone Diameter): 16.8 mm
- zone of inhibition at 6.25 µg/mL ([1]; Comamonas terrigena, ATCC8461, 6.25 mcg/ml, 5 ml. plate, read-out: Zone Diameter): 22.3 mm
- zone of inhibition at 12.5 µg/mL ([1]; Comamonas terrigena, ATCC8461, 12.5 mcg/ml, 5 ml. plate, read-out: Zone Diameter): 25 mm
- zone of inhibition at 25 µg/mL ([1]; Comamonas terrigena, ATCC8461, 25 mcg/ml, 5 ml. plate, read-out: Zone Diameter): 29.6 mm

SMILES: CC(=O)NCCSC1=C(C(=O)O)N2C(=O)C(C(C)O)C2C1 (centres unmarked) [Antibiotic 890A1]
- zone of inhibition at 33 µg/mL [2]: 27 mm
- zone of inhibition at 33 µg/mL [3]: 40 mm
- zone of inhibition at 33 µg/mL [4]: 34 mm
- zone of inhibition at 33 µg/mL [5]: 34 mm
- zone of inhibition at 33 µg/mL [6]: 21 mm
- zone of inhibition at 33 µg/mL [7]: 0 mm
- zone of inhibition at 33 µg/mL [8]: 26 mm
- zone of inhibition at 33 µg/mL [9]: 35 mm
- zone of inhibition at 33 µg/mL [10]: 38 mm
- zone of inhibition at 33 µg/mL [11]: 38 mm
- zone of inhibition at 33 µg/mL [12]: 28 mm
- zone of inhibition at 33 µg/mL [13]: 17 mm
- zone of inhibition at 33 µg/mL [14]: 22 mm
- zone of inhibition at 33 µg/mL [15]: 33 mm
- zone of inhibition at 33 µg/mL [16]: 34 mm
- zone of inhibition at 33 µg/mL [17]: 26 mm
- zone of inhibition at 33 µg/mL [18]: 27 mm
- zone of inhibition at 33 µg/mL [19]: 10 mm
- zone of inhibition at 33 µg/mL [20]: 27 mm
- zone of inhibition at 33 µg/mL [21]: 26 mm
- zone of inhibition at 33 µg/mL [22]: 20 mm
- zone of inhibition at 33 µg/mL [23]: 0 mm
- zone of inhibition at 33 µg/mL [24]: 27 mm
- zone of inhibition at 33 µg/mL [25]: 18 mm
- zone of inhibition at 33 µg/mL [26]: 36 mm
- zone of inhibition at 33 µg/mL [27]: 15 mm
- zone of inhibition at 33 µg/mL [28]: 32 mm
- zone of inhibition at 33 µg/mL [29]: 23 mm
- zone of inhibition at 33 µg/mL [30]: 10 mm
- ED50 × 2 doses [31]: 3 µg
- movement on electrophoresis [32]: acidic substance which moves toward the positive pole on electrophoresis at neutral pH
- solubility in water [33]: very soluble in water
- in vivo activity [34]: exhibits in vivo activity against gram-negative and gram-positive organisms
- activity of the solution tested in vivo [35, 36]: 908 Units/ml.
- potency of 890A1 used in the in vivo test [35, 36]: 5.5 units per μg
- antibiotic potency ([35]; 890A1 value defined as standard): 250 units per HAEA300 unit
